Measured values reported in article PMC5232348, “Molecular and Functional Characterization of Three Odorant-Binding Protein from Periplaneta americana” (PLoS ONE, 2017).
Counter-ions that a name gives are not always drawn. Like-named read-outs stand apart in the source and are kept apart here.

Key:
PameOBP2 = PameOBP2 (Periplaneta americana, UniProt B6E9U8); assay: Competitive fluorescence binding assay (1-NPN displacement), recombinant PameOBP2
Source text: (§1) The PameOBPs were expressed by using Escherichia coli expression system. To generate properly folded protein, the signal peptide predicted by SignalIP 4.1 [18] was removed. The two PameOBPs were amplified by gene special primers (S1 Table) with the cDNA as the template. The purified PCR products were ligated into expression vector pGEX-4T-1 using In-Fusion® HD Cloning Kit (Clontech, Mountain View, CA) according to the manufacturer’s instructions. The recombinant plasmid was transformed into E. coli BL21 (DE3) cells, and then expression and purification was performed according to a previously reported protocol. Recombinant proteins in the supernatant were purified by an affinity chromatography column GSTrap FF (GE Healthcare, Piscataway, NJ, USA). The GST tags were cleaved from recombinant proteins using 400 μL of thrombin (1U/μL) while loaded on GSTrap FF column at 25°C for 10 h and allowed 12 h. After that, the recombinant proteins were eluted with PBS buffer. Finally, the eluted proteins were desalted using HiTrap Desalting (GE Healthcare), lyophilized, and stored at −80°C until use.
(§2) Emission fluorescence spectra were measured on a Hitachi F-4500 fluorescence spectrophotometer following our previous studies. Firstly, dissociation constants of the PameOBPs for N-phenyl-1-naphtylamine (1-NPN) were calculated to determine the suitability of 1-NPN as a fluorescence reporter. […] The binding data were analyzed following our previous studies.

PameOBP1 = PameOBP1 (Periplaneta americana, UniProt B6E9U7); assay: Competitive fluorescence binding assay (1-NPN displacement), recombinant PameOBP1
Source text: as §1, §2

PameOBP3 = PameOBP3 (Periplaneta americana, UniProt B6E9U9); assay: Competitive fluorescence binding assay (1-NPN displacement), recombinant PameOBP3
Source text: as §1, §2

[1] = 2 μM 1-NPN as fluorescent reporter, competitor 0.25–2.5 μM or 2–40 μM, read-out: PameOBP2 IC50
[2] = 2 μM 1-NPN as fluorescent reporter, competitor 0.25–2.5 μM or 2–40 μM, read-out: PameOBP2 Ki
[3] = 2 μM 1-NPN as fluorescent reporter, competitor 0.25–2.5 μM or 2–40 μM, read-out: PameOBP1 IC50
[4] = 2 μM 1-NPN as fluorescent reporter, competitor 0.25–2.5 μM or 2–40 μM, read-out: PameOBP1 Ki
[5] = 2 μM 1-NPN as fluorescent reporter, competitor 0.25–2.5 μM or 2–40 μM, read-out: PameOBP3 Ki
[6] = PameOBP2 Ki, 2 μM 1-NPN as fluorescent reporter, competitor 0.25–2.5 μM or 2–40 μM
[7] = PameOBP1 Ki, 2 μM 1-NPN as fluorescent reporter, competitor 0.25–2.5 μM or 2–40 μM

Chain of PameOBP1 (B6E9U7 entry or part of it): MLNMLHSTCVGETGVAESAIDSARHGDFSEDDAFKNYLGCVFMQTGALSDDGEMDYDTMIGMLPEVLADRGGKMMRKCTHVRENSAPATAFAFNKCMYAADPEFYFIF
Chain of PameOBP3 (B6E9U9 entry or part of it): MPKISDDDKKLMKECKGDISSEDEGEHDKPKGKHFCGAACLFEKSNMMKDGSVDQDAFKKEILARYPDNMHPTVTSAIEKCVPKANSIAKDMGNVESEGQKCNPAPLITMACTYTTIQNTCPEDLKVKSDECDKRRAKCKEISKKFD
Chain of PameOBP2 (B6E9U8 entry or part of it): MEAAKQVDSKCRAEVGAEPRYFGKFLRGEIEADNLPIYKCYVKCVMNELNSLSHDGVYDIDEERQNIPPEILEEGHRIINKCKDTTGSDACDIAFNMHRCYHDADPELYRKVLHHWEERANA

Molecule | Ki (PameOBP2; [2]) [µM] | Ki (PameOBP1; [4]) [µM] | Ki (PameOBP3; [5]) [µM] | Ki (PameOBP3) [µM] | Ki (PameOBP2; [6]) [µM] | Ki (PameOBP1; [7]) [µM] | other results
C=CC(C)(O)CCC=C(C)CCC=C(C)C (mixture of isomers) [Nerolidol] | 26.6 ± 2.79 | > 40 |  |  |  |  | IC50 (PameOBP2; [1]): 32.9 ± 4.21 µM; IC50 (PameOBP1; [3]): > 40 µM
CCCCCCO [1-hexanol] | > 40 | > 40 | > 40 |  |  |  | 
CCCCCCCCCCCC(C)=O [2-Tridecanone] | 1.23 ± 0.08 | 1.85 ± 0.17 |  |  |  |  | IC50 (PameOBP2; [1]): 1.52 ± 0.16 µM; IC50 (PameOBP1; [3]): 2.02 ± 0.16 µM
CCCCCC(C)O (centres unmarked) [2-heptanol] | > 40 | > 40 | > 40 |  |  |  | 
CCCCCC(C)=O [2-heptanone] | > 40 | > 40 | > 40 |  |  |  | 
CCCCC(C)=O [2-hexanone] |  |  |  | > 40 | > 40 | > 40 | 
CCCCCCCCC(CO)CCCCCC (centres unmarked) [2-hexyl-1-decanol] | > 40 | > 40 | > 40 |  |  |  | 
CCCCCCCCCCCCCC(C)=O [2-pentadecanone] | > 40 | > 40 | > 40 |  |  |  | 
CCCC(O)CC (centres unmarked) [3-hexanol] | > 40 | > 40 | > 40 |  |  |  | 
CCCC(=O)CC [3-hexanone] | > 40 | > 40 | > 40 |  |  |  | 
CC(=O)CCC=C(C)C [6-methyl-5-hepten-2-one] |  |  |  | > 40 | > 40 | > 40 | 
C[C@@H]1CC[C@H]2C(C)(C)[C@H]3C[C@@]12CC[C@@]3(C)O [(+)-cedrol] |  |  |  | > 40 | > 40 | > 40 | 
CC(=O)/C=C/C1=C(C)CCCC1(C)C [Beta- ionone] |  |  |  |  | 12.2 ± 0.9 | 14.4 ± 1.6 | IC50 (PameOBP2): 15 ± 1.1 µM; IC50 (PameOBP1): 15.8 ± 2.1 µM
CC/C=C\CCO [Cis-3-hexenol] |  |  |  | > 40 | > 40 | > 40 | 
CC/C=C\CCOC(=O)CCCCC [Cis-3-hexenyl hexanoate] | > 40 | 22.5 ± 2.6 |  |  |  |  | IC50 (PameOBP2; [1]): > 40 µM; IC50 (PameOBP1; [3]): 24.6 ± 1.9 µM
CC(C)=CCC/C(C)=C/CC/C(C)=C/CO [Farnesol] | 0.53 ± 0.06 | 0.92 ± 0.06 |  |  |  |  | IC50 (PameOBP2; [1]): 0.65 ± 0.07 µM; IC50 (PameOBP1; [3]): 1.01 ± 0.09 µM
CC(=O)OC/C=C(\C)CCC=C(C)C [Geranyl acetate] | 32.6 ± 2.95 | > 40 |  |  |  |  | IC50 (PameOBP2; [1]): 40 ± 3.16 µM; IC50 (PameOBP1; [3]): > 40 µM
CC(=O)CC/C=C(\C)CCC=C(C)C [Geranylacetone] | 6.97 ± 0.72 | > 40 |  |  |  |  | IC50 (PameOBP2; [1]): 8.62 ± 0.68 µM; IC50 (PameOBP1; [3]): > 40 µM
CCCCCCCCCCCCCC [Tetradecane] | 0.96 ± 0.1 |  |  |  |  |  | IC50 (PameOBP2; [1]): 1.19 ± 0.09 µM; IC50 (PameOBP1; [3]): > 40 µM
C=CC(C)(O)CC/C=C(\C)CCC=C(C)C (stereo not drawn) [Trans-nerolidol] | 12.6 ± 0.98 | > 40 |  |  |  |  | IC50 (PameOBP2; [1]): 15.6 ± 1.3 µM; IC50 (PameOBP1; [3]): > 40 µM
CC(=O)c1ccccc1 [acetophenone] | > 40 | > 40 | > 40 |  |  |  | 
CC1=CC[C@H](C(C)C)C=C1 [alpha-phellandrene] |  |  |  | > 40 | > 40 | > 40 | 
O=Cc1ccccc1 [benzaldehyde] |  |  |  | > 40 | > 40 | > 40 | 
CC(=O)OCc1ccccc1 [benzyl acetate] | > 40 | > 40 | > 40 |  |  |  | 
OCc1ccccc1 [benzyl alcohol] |  |  |  | > 40 | > 40 | > 40 | 

Molecule | Ki (PameOBP2; [2]) [µM] | Ki (PameOBP1; [4]) [µM] | Ki (PameOBP3; [5]) [µM] | Ki (PameOBP3) [µM] | Ki (PameOBP2; [6]) [µM] | Ki (PameOBP1; [7]) [µM] | other results
C=C1CC/C=C(\C)CC[C@@H]2[C@@H]1CC2(C)C [beta-caryophyllene] |  |  |  | > 40 | > 40 | > 40 | 
CCCCOC(C)=O [butyl acetate] |  |  |  | > 40 | > 40 | > 40 | 
CCCCOC=O [butyl formate] | > 40 | > 40 | > 40 |  |  |  | 
C=C1C2CCC(C2)C1(C)C (centres unmarked) [camphene] | > 40 | > 40 | > 40 |  |  |  | 
CCC/C=C\CO [cis-2-hexen-1-ol] |  |  |  | > 40 | > 40 | > 40 | 
CC/C=C\CC=O [cis-3-hexenal] | > 40 | > 40 | > 40 |  |  |  | 
CC/C=C\CCOC(C)=O [cis-3-hexenyl acetate] | > 40 | > 40 | > 40 |  |  |  | 
CC/C=C\CCOC(=O)CCC [cis-3-hexenyl butyrate] | > 40 | > 40 | > 40 |  |  |  | 
CC(C)c1ccccc1 [cumene] |  |  |  | > 40 | > 40 | > 40 | 
CCCCCCCCCC=O [decanal] | > 40 | > 40 | > 40 |  |  |  | 
CCCCCCCCCCCC [dodecane] | > 40 | > 40 | > 40 |  |  |  | 
CCOC(=O)c1ccccc1 [ethyl benzoate] |  |  |  | > 40 | > 40 | > 40 | 
CCCC(=O)OCC [ethyl butyrate] | > 40 | > 40 | > 40 |  |  |  | 
CCOC(=O)CC [ethyl propionate] | > 40 | > 40 | > 40 |  |  |  | 
CCc1ccccc1 [ethylbenzene] |  |  |  | > 40 | > 40 | > 40 | 
CC12CCC(CC1)C(C)(C)O2 [eucalyptol] | > 40 | > 40 | > 40 |  |  |  | 
CC(C)=CCC/C(C)=C/CO [geraniol] |  |  |  | > 40 | > 40 | > 40 | 
CCCCCCCCCCCCCCCCC [heptadecane] | > 40 | > 40 | > 40 |  |  |  | 
CCCCCCCOC(C)=O [heptyl acetate] | > 40 | > 40 | > 40 |  |  |  | 
CCCCCC=O [hexanal] |  |  |  | > 40 | > 40 | > 40 | 
CCCCCCOC(=O)CCC [hexyl butyrate] | > 40 | > 40 | > 40 |  |  |  | 
c1ccc2[nH]ccc2c1 [indole] |  |  |  | > 40 | > 40 | > 40 | 
CC(=O)OCCC(C)C [isoamyl acetate] | > 40 | > 40 | > 40 |  |  |  | 
Farnesene | 0.52 ± 0.03 | 1.04 ± 0.1 |  |  |  |  | Ki (PameOBP2; 2 μM 1-NPN as fluorescent reporter, competitor 0.25–2.5 μM or 2–40 μM, listed as farnesene, read-out: PameOBP2 Ki): < 2 µM; IC50 (PameOBP2; [1]): 0.64 ± 0.08 µM; Ki (PameOBP1; 2 μM 1-NPN as fluorescent reporter, competitor 0.25–2.5 μM or 2–40 μM, listed as farnesene, read-out: PameOBP1 Ki): < 2 µM; IC50 (PameOBP1; [3]): 1.14 ± 0.12 µM
